Source: US8507463B2, “Nucleotide analogue prodrug and the preparation thereof” (Jiangsu Chia Tai Tianqing Pharmaceutical Co., Ltd., priority 2005, dated 2013)
Like-named read-outs stand apart in the source and are kept apart here.

How the values were obtained:
BEAGLE dogs = test: Long term toxicity test (kidney function); type: in vivo; settings: 6 months
Procedure: BEAGLE dogs as animal models, Adefovir Dipivoxil as control sample, long term toxicity of TD crystalline form A was investigated, especially the effects of TD crystalline form A on kidney function was investigated.
30 BEAGLE dogs were randomly divided into 5 groups, 6 dogs per group. One group as blank control group, three groups as low dosing, medium dosing and high dosing group of TD crystalline form A respectively. The dosage of low dosing group was 5 mg/kg once per day, the dosage of medium dosing group was 15 mg/kg once per day and the dosage of high dosing group was 45 mg/kg once per day. The remaining group was Adefovir Dipivoxil control group, dosed at 40 mg/kg once per day.
Drugs mixed with salad oil were administered to the animals for 6 months consecutively, then observed for 21 consecutive days after drug withdrawal.

Duck Hepatitis B Virus = test: Anti-viral (anti-HBV) test in vivo, DHBV-DNA level by PCR; parameters: species or system GaoYou pockmark ducks; settings: ducks, 15 mg/ml group, once a day; day 0 level as base line of 100
Procedure: Two-month old pockmark ducks vertically infected with Duck Hepatitis B Virus were selected as animal models to conduct anti-HBV test in vivo, the efficacy was investigated. 80 GaoYou pockmark ducks were divided randomly into. 8 groups, 10 ducks per groups, three groups were given TD fumarate at the dosage of 5, 15, 45 mg/kg once a day respectively, other three groups were given Tenofovir Disoproxil Fumarate at the dosage of 5, 15, 45 mg/kg once a day respectively, other one group was given Adefovir Dipivoxil at the dosage of 15 mg/kg once a day and the remaining group was blank control group. All the groups were administered for 28 days, and blood samples were taken every 7 days to determine the inhibitory effect to the DHBV-DNA level by PCR, inhibition rate was listed in the following table.

[1] = human, cited from earlier work
[2] = Stability analysis, overall conclusion in words; type: physicochemical; settings: from light, high temperature, high humidity and acceleration tests
[3] = type: physicochemical
[4] = High humidity test (room temperature, relative humidity 75±5%); type: physicochemical; settings: 25° C.
Procedure: Samples were evenly spread out and placed in open culture dishes, wherein the thickness thereof was less than 5 mm, put in a thermostatic drying chamber at room temperature (25° C.) with relative humidity of 75±5%. Then the samples were taken on the fifth and tenth day respectively for determination, compared with the result of day 0, results were listed in the table below

[5] = Acceleration test (40° C., relative humidity 75%); type: physicochemical
Procedure: Samples were sealed with polyethylene plastic bags, placed in the thermostatic drying chamber at 40±2° C. with relative humidity of 75±5% for 3 months. Then the samples were taken at the end of the first, second and third month respectively for determination, compared with the result of day 0, results were listed in the table below: […]

[6] = Light exposure test (4500±500 Lx); type: physicochemical; settings: light 4500±500 Lx
Description: Samples were evenly spread out and placed in open culture dishes and the thickness thereof was less than 5 mm, then distances were adjusted until the illumination intensity was 4500±500 Lx, samples were taken on the fifth and tenth day respectively for determination, compared with the result of day 0, results were listed in the table below: […]

[7] = Acute toxicity test, median lethal dose (LD50); settings: both sexes, mouse, in vivo, oral, mice, infused into the stomach, observed 14 days
Procedure: TD fumarate and TD crystalline form A were dissolved in 0.1M citric acid aqueous solution respectively, 140 healthy mice with 18˜22 g body-weight was selected, randomly divided into 14 groups, 10 per group, and the number of male and female mice were equal.
Following the preliminary test, TD fumarate and TD crystalline form A were administered to 7 different dosing groups by infusing into the stomach, observed for 14 days consecutively to investigate the toxic reaction and death cases of mice and then LD50 was calculated.

[8] = High temperature test (60° C.); type: physicochemical; settings: sealed ampoules
Procedure: Samples were sealed in clean glass ampoules and put in 60° C. thermostatic drying chamber, then they were taken on the fifth and tenth day respectively for determination, compared with the result of day 0, results were listed in the table below:
Samples were sealed in clean glass ampoules and put in 60° C. thermostatic drying chamber, then they were taken on the fifth and tenth day respectively for determination, compared with the result of day 0, results were listed in the table below

[9] = BEAGLE dogs, 40 mg/kg once per day

CC(C)(C)C(=O)OCOP(=O)(COCCn1cnc2c(N)ncnc21)OCOC(=O)C(C)(C)C [Adefovir Dipivoxil]
levels of serum carnine and urea nitrogen, in words (BEAGLE dogs; [9]): significantly higher | urea nitrogen (BEAGLE dogs; [9]): 24.7 ± 1.35 mmol/L | DHBV-DNA level, First week (Duck Hepatitis B Virus): 85 ± 7 | DHBV-DNA level, Fourth week (Duck Hepatitis B Virus): 33 ± 6 | DHBV-DNA level, Second week (Duck Hepatitis B Virus): 70 ± 6 | DHBV-DNA level, Third week (Duck Hepatitis B Virus): 55 ± 7 | adverse reaction and renal dysfunction ([1]; 50 mg/day and 30 mg/day): higher incidence | nephrotoxicity in clinical trials ([1]; recent clinical trials): observed

C[C@H](Cn1cnc2c(N)ncnc21)OCP(=O)(OCOC(=O)C(C)(C)C)OCOC(=O)C(C)(C)C [TD crystalline form A, 9-[2-(R)-[bis[pivaloyloxymethoxy]-phosphinylmethoxy]propyl]adenine]
stability, overall conclusion in words [2]: good stabilities | solubility conclusion, 0.1N HCl ([3]; 0.1N HCl): soluble | solubility conclusion, 0.1N NaOH ([3]; 0.1N NaOH): slightly | solubility conclusion, anhydrous ethanol ([3]; anhydrous ethanol): freely soluble | solubility conclusion, methanol ([3]; methanol): freely soluble | amount of solvent (ml), 0.1N HCl ([3]; to dissolve 1 g of sample, 0.1N HCl): 33.5 mL | amount of solvent (ml), 0.1N NaOH ([3]; to dissolve 1 g of sample, 0.1N NaOH): 910 mL | amount of solvent (ml), anhydrous ethanol ([3]; to dissolve 1 g of sample, anhydrous ethanol): 5.0 mL | amount of solvent (ml), methanol ([3]; to dissolve 1 g of sample, methanol): 1.4 mL | amount of solvent (ml), water ([3]; to dissolve 1 g of sample, water): 880 mL | solubility conclusion, water ([3]; water): soluble | content (%) ([4]; day 0): 99.7% | Weight gain after moisture absorption (%) ([4]; day 5): 4.3% | content (%) ([4]; day 5): 98.5% | Weight gain after moisture absorption (%) ([4]; day 10): 5.6% | content (%) ([4]; day 10): 97.2% | content (%) ([5]; end of month 1): 93.1% | content (%) ([5]; end of month 2): 90.5% | content (%) ([5]; end of month 3): 86.3% | content (%) ([5]; month 0): 99.7% | urea nitrogen (BEAGLE dogs; BEAGLE dogs, 5 mg/kg once per day): 17.1 ± 1.32 mmol/L | urea nitrogen (BEAGLE dogs; BEAGLE dogs, 15 mg/kg once per day): 14.2 ± 1.20 mmol/L | urea nitrogen (BEAGLE dogs; BEAGLE dogs, 45 mg/kg once per day): 15.7 ± 1.08 mmol/L | hematological, blood and urine biochemical parameters versus blank control group, in words (BEAGLE dogs; BEAGLE dogs, 5, 15 and 45 mg/kg once per day): no significant differences | content (%) ([6]; day 0): 98.7% | content (%) ([6]; day 5): 98.3% | content (%) ([6]; day 10): 98.5% | LD50 at 14 days ([7]; read-out: LD50): 4310 mg/kg | LD50 at 14 days ([7]; read-out: LD50, 95% confident limit): 2830 to 5440 mg/kg | content (%) ([8]; day 0): 99.1% | content (%) ([8]; day 5): 98.6% | content (%) ([8]; day 10): 98.4%
